From US7994140B2, “Classes of compounds that interact with GPCRs” (Alchemia Limited, priority 2002, dated 2011)

Columns and labels:
SST5 = biological target: T1, SST5 (Homo sapiens, UniProt P35346); test: GPCR radioligand binding (RLB) assay, somatostatin SST5, [125I]SST-14; conditions: 10 micromolar compound; recombinant human receptor membranes (HEK 293)
T1 construct: purchased Perkin Elmer BioSignal; host or cells: HEK 293
Method: Recombinant human receptors expressed in HEK 293 cells were used for all experiments. Receptor membrane preparations were purchased from Perkin Elmer BioSignal. The labelled ligand used in somatostatin GPCR RLB assays was [^125I]SST-14 and in melanocortin assays was [^125I]NDP-αMSH. All assays were done in a 96-well plate format using either glass fiber filter mats or filter plates. All reagents purchased were of the highest quality.
Specific assay buffer, incubation and washing conditions were optimized for each receptor however they all followed the same general format. The procedures for both filter mat and filter plate formats are based on the receptor manufacturers recommendations or those described extensively in the literature. The procedures are briefly outlined below.
In assays where filter mats are used we incubate receptor membranes, assay buffer and [^125I] labelled ligand in 96 well microplates. Add compounds to incubation mixture and continue incubation for optimized period. Presoak Filter mat GF/B in 0.5% PEI for ˜2 hr at 4° C. On completion of assay mixture incubation add additional 100 μL/well of assay buffer immediately prior to filtration. Filter the assay mixture onto the GF/B filter mat using a cell harvester. Dry the filter mats prior to sealing them into a scintillation counting bag with scintillant. Radioactivity in each well is detected by liquid scintillation counting.
In assays where filter plates are used Multiscreen glass fiber filter plates (Millipore, Cat No MAFCNOB10) are precoated with 0.5% PEI for ˜2 hr at 4° C. All wells are then washed with 200 µl/well assay buffer and filtered using the Multiscreen Separation System. Subsequently receptor membranes, assay buffer and labelled ligands are added to the wells and equilibrated. Compounds for testing are then added to the mixture and incubation is continued for an optimized time. Plates are then put into the Multiscreen Separation System and the assay mixture is filtered through the plate under vacuum. Each well is then washed several times with assay buffer. Plates are then dried prior to putting sealing tape onto the bottom of the plate. Scintillant is added to each well and radioactivity measured by liquid scintillation counting.
Raw data was analysed according to standard methods using either GraphPad Prism software or IDDBS ActivityBase software.

MC4 = biological target: T2, MC4 (Homo sapiens, UniProt P32245); test: GPCR radioligand binding (RLB) assay, melanocortin MC4, [125I]NDP-αMSH; conditions: for MC4 Inhibition at 4.0 Micromolar: Example Library 13; for MC4 Inhibition at 1.0 Micromolar: 1.0 micromolar compound
T2 construct: purchased Perkin Elmer BioSignal; host or cells: HEK 293
T2 sequence (P32245 whole entry): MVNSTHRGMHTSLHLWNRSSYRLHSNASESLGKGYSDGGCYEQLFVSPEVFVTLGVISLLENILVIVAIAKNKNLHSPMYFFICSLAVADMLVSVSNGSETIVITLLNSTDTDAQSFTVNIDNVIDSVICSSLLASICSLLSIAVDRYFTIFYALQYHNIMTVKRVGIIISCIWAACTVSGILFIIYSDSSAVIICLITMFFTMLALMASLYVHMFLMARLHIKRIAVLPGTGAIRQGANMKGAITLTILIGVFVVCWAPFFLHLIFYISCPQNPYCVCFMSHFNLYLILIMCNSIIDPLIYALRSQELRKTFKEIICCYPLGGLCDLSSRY
Outline: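 Competition binding against radioligand ([125I]NDP-αMSH for MC4, [125I]SST-14 for SST5) on membranes of HEK 293 cells carrying the human receptor; buffer and incubation time optimized per receptor. Filtration through 0.5% PEI-treated glass fiber, washing, then scintillation counting.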

T1 sequence (P35346 whole entry): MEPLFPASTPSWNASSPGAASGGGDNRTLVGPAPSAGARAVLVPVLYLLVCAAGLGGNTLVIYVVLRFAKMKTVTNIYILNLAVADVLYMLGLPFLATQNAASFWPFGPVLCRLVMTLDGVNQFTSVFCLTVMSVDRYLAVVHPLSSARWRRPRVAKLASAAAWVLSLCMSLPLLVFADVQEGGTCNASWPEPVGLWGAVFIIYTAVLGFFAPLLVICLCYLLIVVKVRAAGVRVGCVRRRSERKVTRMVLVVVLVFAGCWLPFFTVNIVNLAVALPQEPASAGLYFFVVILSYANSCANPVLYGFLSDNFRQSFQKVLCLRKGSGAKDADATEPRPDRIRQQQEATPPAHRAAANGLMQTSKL

Question: How did the “SST5 inhibition at 10 micromolar” value (SST5) turn out when COC[C@H]1OC(OCc2ccc(-c3ccccc3)cc2)[C@H](NC(=O)CCNC(=N)N)[C@@H](OCc2ccc3ccccc3c2)[C@@H]1O (stereo partly drawn) [Compound 2] was run?
Answer: + (Indicates inhibition greater than . . . 50%)

Question: COC[C@H]1OC(OCc2ccc(-c3ccccc3)cc2)[C@H](NC(=O)CCCN)[C@@H](OCc2ccccc2)[C@@H]1O (stereo partly drawn) [Compound 3] was tested. Which “SST5 inhibition at 10 micromolar” value (SST5) did it give?
Answer: + (Indicates inhibition greater than . . . 50%)

Question: For COC[C@H]1OC(OCc2ccc3ccccc3c2)[C@H](NC(=O)CCCN)[C@@H](OCc2ccccc2)[C@@H]1O (stereo partly drawn) [Compound 4], which “SST5 inhibition at 10 micromolar” value (SST5) is on record?
Answer: + (Indicates inhibition greater than . . . 50%)

Question: COC[C@H]1OC(OCc2ccccc2)[C@H](NC(=O)CCCN)[C@@H](OCc2ccc(-c3ccccc3)cc2)[C@@H]1O (stereo partly drawn) [Compound 7] was tested. Which “SST5 inhibition at 10 micromolar” value (SST5) did it give?
Answer: + (Indicates inhibition greater than . . . 50%)

Question: For COC[C@H]1OC(OCc2ccccc2)[C@H](NC(=O)CCCNC(=N)N)[C@@H](OCc2ccc(-c3ccccc3)cc2)[C@@H]1O (stereo partly drawn) [Compound 8], which “SST5 inhibition at 10 micromolar” value (SST5) is on record?
Answer: + (Indicates inhibition greater than . . . 50%)

Question: How did the “SST5 inhibition at 10 micromolar” value (SST5) turn out when COC[C@H]1OC(OCc2ccccc2)[C@H](NC(=O)CCCN)[C@@H](OCc2ccccc2)[C@@H]1O (stereo partly drawn) [Compound 9] was run?
Answer: + (Indicates inhibition greater than . . . 50%)

Question: COC[C@H]1OC(OCc2ccccc2)[C@H](NC(=O)CCNC(=N)N)[C@@H](OCc2ccc(Cl)cc2)[C@@H]1O (stereo partly drawn) [Compound 10] was tested. Which “SST5 inhibition at 10 micromolar” value (SST5) did it give?
Answer: + (Indicates inhibition greater than . . . 50%)

Question: For COC[C@H]1OC(OCc2ccccc2)[C@H](NC(=O)CCCN)[C@@H](OCc2ccc(Cl)cc2)[C@@H]1O (stereo partly drawn) [Compound 11], which “SST5 inhibition at 10 micromolar” value (SST5) is on record?
Answer: + (Indicates inhibition greater than . . . 50%)

Question: COC[C@H]1OC(OCc2ccccc2)[C@H](NC(=O)CCCNC(=N)N)[C@@H](OCc2ccc(Cl)cc2)[C@@H]1O (stereo partly drawn) [Compound 12] was tested. Which “SST5 inhibition at 10 micromolar” value (SST5) did it give?
Answer: + (Indicates inhibition greater than . . . 50%)

Question: COC[C@H]1OC(OCc2ccc(Cl)cc2)[C@H](NC(=O)CCCN)[C@@H](OCc2ccccc2)[C@@H]1O (stereo partly drawn) [Compound 16] was tested. Which “SST5 inhibition at 10 micromolar” value (SST5) did it give?
Answer: + (Indicates inhibition greater than . . . 50%)

Question: With COC[C@H]1OC(OCc2ccc(Cl)cc2)[C@H](NC(=O)CCNC(=N)N)[C@@H](OCc2ccc(Cl)cc2)[C@@H]1O (stereo partly drawn) [Compound 17] as the molecule, how does the “SST5 inhibition at 10 micromolar” value (SST5) read?
Answer: + (Indicates inhibition greater than . . . 50%)

Question: For COC[C@H]1OC(OCc2ccc(Cl)cc2)[C@H](NC(=O)CCCNC(=N)N)[C@@H](OCc2ccc(Cl)cc2)[C@@H]1O (stereo partly drawn) [Compound 18], which “SST5 inhibition at 10 micromolar” value (SST5) is on record?
Answer: + (Indicates inhibition greater than . . . 50%)

Question: How did the “SST5 inhibition at 10 micromolar” value (SST5) turn out when COC[C@H]1OC(OCc2cccc(O)c2)[C@H](NC(=O)CCNC(=N)N)[C@@H](OCc2ccc(-c3ccccc3)cc2)[C@@H]1O (stereo partly drawn) [Compound 21] was run?
Answer: + (Indicates inhibition greater than . . . 50%)

Question: For COC[C@H]1OC(OCc2ccc(-c3ccccc3)cc2)[C@H](NC(=O)CCCN)[C@@H](OCc2cccc(O)c2)[C@@H]1O (stereo partly drawn) [Compound 22], which “SST5 inhibition at 10 micromolar” value (SST5) is on record?
Answer: + (Indicates inhibition greater than . . . 50%)

Question: For COC[C@H]1OC(OCc2ccc3ccccc3c2)[C@H](NC(=O)CCCN)[C@@H](OCc2cccc(O)c2)[C@@H]1O (stereo partly drawn) [Compound 23], which “SST5 inhibition at 10 micromolar” value (SST5) is on record?
Answer: + (Indicates inhibition greater than . . . 50%)

Question: Which “SST5 inhibition at 10 micromolar” value (SST5) does the source give for COC[C@H]1OC(OCc2ccc3ccccc3c2)[C@H](NC(=O)CCCNC(=N)N)[C@@H](OCc2cccc(O)c2)[C@@H]1O (stereo partly drawn) [Compound 24] here?
Answer: + (Indicates inhibition greater than . . . 50%)

Question: For COC[C@H]1OC(OCc2ccccc2)[C@H](NC(=O)CCCN)[C@@H](OCc2cccc(O)c2)[C@@H]1O (stereo partly drawn) [Compound 25], which “SST5 inhibition at 10 micromolar” value (SST5) is on record?
Answer: + (Indicates inhibition greater than . . . 50%)

Question: How did the “SST5 inhibition at 10 micromolar” value (SST5) turn out when COC[C@H]1OC(OCc2ccc(Cl)cc2)[C@H](NC(=O)CCCN)[C@@H](OCc2cccc(O)c2)[C@@H]1O (stereo partly drawn) [Compound 26] was run?
Answer: + (Indicates inhibition greater than . . . 50%)

Question: Which “SST5 inhibition at 10 micromolar” value (SST5) does the source give for COC[C@H]1OC(OCCc2ccccc2)[C@H](NC(=O)CCCN)[C@@H](OCc2cccc(O)c2)[C@@H]1O (stereo partly drawn) [Compound 27] here?
Answer: + (Indicates inhibition greater than . . . 50%)

Question: Which “SST5 inhibition at 10 micromolar” value (SST5) does the source give for COC[C@H]1OC(OCc2ccc(-c3ccccc3)cc2)[C@H](NC(=O)CCNC(=N)N)[C@@H](OCc2ccccc2)[C@@H]1O (stereo partly drawn) [Compound 31] here?
Answer: + (Indicates inhibition greater than . . . 50%)

Question: With COC[C@H]1OC(OCc2ccc3ccccc3c2)[C@H](NC(=O)CCCNC(=N)N)[C@@H](OCc2ccccc2)[C@@H]1O (stereo partly drawn) [Compound 41] as the molecule, how does the “SST5 inhibition at 10 micromolar” value (SST5) read?
Answer: + (Indicates inhibition greater than . . . 50%)

Question: For N=C(N)NCCC(=O)NC1C(OCc2ccc(Cl)cc2)OC(COCc2ccc(Cl)cc2)C(O)C1OCc1ccc(Cl)cc1 (stereo not drawn) [Compound 490], which “MC4 Inhibition at 4.0 Micromolar” value (MC4) is on record?
Answer: + (Indicates inhibition greater than . . . 50%)

Question: N=C(N)NCCC(=O)NC1C(OCc2ccc(Cl)cc2)OC(COCc2ccc3ccccc3c2)C(O)C1OCc1ccc2ccccc2c1 (stereo not drawn) [Compound 491] was tested. Which “MC4 Inhibition at 4.0 Micromolar” value (MC4) did it give?
Answer: + (Indicates inhibition greater than . . . 50%)

Question: N=C(N)NCCC(=O)NC1C(OCc2ccc(Cl)cc2)OC(COCc2ccccc2)C(O)C1OCc1ccc2ccccc2c1 (stereo not drawn) [Compound 492] was tested. Which “MC4 Inhibition at 4.0 Micromolar” value (MC4) did it give?
Answer: + (Indicates inhibition greater than . . . 50%)

Question: Which “MC4 Inhibition at 4.0 Micromolar” value (MC4) does the source give for N=C(N)NCCC(=O)NC1C(OCc2ccc(Cl)cc2)OC(COCc2ccc(Cl)cc2)C(O)C1OCc1ccc2ccccc2c1 (stereo not drawn) [Compound 493] here?
Answer: + (Indicates inhibition greater than . . . 50%)

Question: N=C(N)NCCC(=O)NC1C(OCc2ccc(Cl)cc2)OC(COCc2ccc3ccccc3c2)C(O)C1OCc1ccc(-c2ccccc2)cc1 (stereo not drawn) [Compound 494] was tested. Which “MC4 Inhibition at 4.0 Micromolar” value (MC4) did it give?
Answer: + (Indicates inhibition greater than . . . 50%)

Question: Which “MC4 Inhibition at 4.0 Micromolar” value (MC4) does the source give for N=C(N)NCCC(=O)NC1C(OCc2ccc(Cl)cc2)OC(COCc2ccccc2)C(O)C1OCc1ccc(-c2ccccc2)cc1 (stereo not drawn) [Compound 495] here?
Answer: + (Indicates inhibition greater than . . . 50%)

Question: With N=C(N)NCCC(=O)NC1C(OCc2ccc(Cl)cc2)OC(COCc2ccc(Cl)cc2)C(O)C1OCc1ccc(-c2ccccc2)cc1 (stereo not drawn) [Compound 496] as the molecule, how does the “MC4 Inhibition at 4.0 Micromolar” value (MC4) read?
Answer: + (Indicates inhibition greater than . . . 50%)

Question: For N=C(N)NCCCC(=O)NC1C(OCc2ccc(-c3ccccc3)cc2)OC(COCc2ccccc2)C(O)C1OCc1ccccc1 (stereo not drawn) [Compound 497], which “MC4 Inhibition at 4.0 Micromolar” value (MC4) is on record?
Answer: + (Indicates inhibition greater than . . . 50%)

Question: Which “MC4 Inhibition at 1.0 Micromolar” value (MC4) does the source give for CC(=O)N[C@H]1C(NC(=O)CCN)O[C@H](CO)[C@@H](O)[C@@H]1OCc1ccccc1 (stereo partly drawn) [Compound 498] here?
Answer: + (Indicates inhibition greater than . . . 50%)

Question: For CC(=O)N[C@H]1C(NC(=O)CCN)O[C@H](CO)[C@@H](O)[C@@H]1OCc1ccc(C)cc1 (stereo partly drawn) [Compound 499], which “MC4 Inhibition at 1.0 Micromolar” value (MC4) is on record?
Answer: + (Indicates inhibition greater than . . . 50%)

Question: For CC(=O)N[C@H]1C(NC(=O)CCN)O[C@H](CO)[C@@H](O)[C@@H]1OCc1cccc2ccccc12 (stereo partly drawn) [Compound 500], which “MC4 Inhibition at 1.0 Micromolar” value (MC4) is on record?
Answer: + (Indicates inhibition greater than . . . 50%)

Question: How did the “MC4 Inhibition at 1.0 Micromolar” value (MC4) turn out when CC(=O)N[C@H]1C(NC(=O)CCN)O[C@H](CO)[C@@H](O)[C@@H]1OCc1ccc(-c2ccccc2)cc1 (stereo partly drawn) [Compound 501] was run?
Answer: + (Indicates inhibition greater than . . . 50%)

Question: Which “MC4 Inhibition at 1.0 Micromolar” value (MC4) does the source give for NCCC(=O)NC1O[C@H](CO)[C@@H](O)[C@H](OCc2ccccc2)[C@H]1NC(=O)c1ccccc1 (stereo partly drawn) [Compound 502] here?
Answer: + (Indicates inhibition greater than . . . 50%)

Question: How did the “MC4 Inhibition at 1.0 Micromolar” value (MC4) turn out when NCCC(=O)NC1O[C@H](CO)[C@@H](O)[C@H](OCc2ccc(Cl)cc2)[C@H]1NC(=O)c1ccccc1 (stereo partly drawn) [Compound 503] was run?
Answer: + (Indicates inhibition greater than . . . 50%)

Question: Cc1ccc(CO[C@H]2[C@H](O)[C@@H](CO)OC(NC(=O)CCN)[C@@H]2NC(=O)c2ccccc2)cc1 (stereo partly drawn) [Compound 504] was tested. Which “MC4 Inhibition at 1.0 Micromolar” value (MC4) did it give?
Answer: + (Indicates inhibition greater than . . . 50%)

Question: With NCCC(=O)NC1O[C@H](CO)[C@@H](O)[C@H](OCc2cccc3ccccc23)[C@H]1NC(=O)c1ccccc1 (stereo partly drawn) [Compound 505] as the molecule, how does the “MC4 Inhibition at 1.0 Micromolar” value (MC4) read?
Answer: + (Indicates inhibition greater than . . . 50%)

Question: Which “MC4 Inhibition at 1.0 Micromolar” value (MC4) does the source give for NCC(=O)NC1O[C@H](CO)[C@@H](O)[C@H](OCc2ccccc2)[C@H]1NC(=O)c1ccccc1 (stereo partly drawn) [Compound 506] here?
Answer: + (Indicates inhibition greater than . . . 50%)

Question: NCC(=O)NC1O[C@H](CO)[C@@H](O)[C@H](OCc2ccc(Cl)cc2)[C@H]1NC(=O)c1ccccc1 (stereo partly drawn) [Compound 507] was tested. Which “MC4 Inhibition at 1.0 Micromolar” value (MC4) did it give?
Answer: + (Indicates inhibition greater than . . . 50%)
